# Laboratory results taken from US9949983B2, “Fused benzazepines for treatment of stuttering” (PSYADON PHARMACEUTICALS, INC., priority 2013, dated 2018).
# Where two headings read alike, the source gives them in different places.
# How the values were obtained:
# [1] = cited from earlier work
# stuttering = settings: cited from earlier work
# hD1/hD5 receptors = test: Binding to cloned human receptors
# Description: (§1) Activation of D1 receptors by dopamine and similar agonists stimulates the production of cyclic AMP (cAMP) via activation of adenylate cyclase. […] To ensure that there was no species specificity to the receptor binding profile, ecopipam's potency and selectivity were evaluated using cloned human receptors. […] Positron emission tomography (PET) studies using radiolabeled ecopipam have been conducted in healthy volunteers (Karlsson et al., Psychopharmacol., 121:300-308, 1995).
# dopamine D1 receptors = dopamine D1 receptors (Homo sapiens, UniProt P21728); settings: radiolabeled ecopipam, healthy volunteers; cited from earlier work
# [2] = Open-label clinical study of safety, tolerability and activity in adult patients with Tourette's Syndrome; format: in vivo, human; settings: adult TS patients, 50 mg/day Weeks 1-2, 100 mg/day Weeks 3-8
# Description: A clinical program was carried out to test the safety, tolerability, and activity of ecopipam in adult patients with Tourette's Syndrome. A multicenter, open-label, nonrandomized study in 25 to 30 subjects was conducted to assess the activity and safety of ecopipam in subjects with TS. […] Assessment was performed at each visit. A follow-up visit was conducted via telephone at Week 10 to record any adverse events. Ecopipam was administered daily before bedtime at 50 mg/day for Week 1 and Week 2 and at 100 mg/day for Weeks 3-8. This treatment regimen is within the scope of the present invention; the compositions and various formulations described herein can be administered as described in this Example. The demographics of the study population were as follows: eighty three percent of the subjects were male (15 out of 18); fifteen were Caucasian, two were African-American, and one was an Asian/Pacific Islander. All subjects reported at least one adverse event (AE). […] These side effects are similar to those seen in other studies with ecopipam and were not unexpected.
# D1 receptor = biological target: T1, D1 receptor (Rattus norvegicus, UniProt P18901); settings: rats, selective D1-agonist discriminative stimulus; cited from earlier work
# T1 construct: In vivo studies on dopamine-agonist-induced behaviors; from tissue; host or cells: living rats (in vivo)
# D1 receptors = D1 receptors (Homo sapiens, UniProt P21728); test: In vitro cAMP second messenger studies (adenylate cyclase); format: biochemical
# Description: as §1
# D1/D5 receptors = settings: rat brain homogenates, at low concentrations; cited from earlier work
# [3] = known D2 antagonists, literature reports
# D1 receptors, sequence (P21728 whole entry): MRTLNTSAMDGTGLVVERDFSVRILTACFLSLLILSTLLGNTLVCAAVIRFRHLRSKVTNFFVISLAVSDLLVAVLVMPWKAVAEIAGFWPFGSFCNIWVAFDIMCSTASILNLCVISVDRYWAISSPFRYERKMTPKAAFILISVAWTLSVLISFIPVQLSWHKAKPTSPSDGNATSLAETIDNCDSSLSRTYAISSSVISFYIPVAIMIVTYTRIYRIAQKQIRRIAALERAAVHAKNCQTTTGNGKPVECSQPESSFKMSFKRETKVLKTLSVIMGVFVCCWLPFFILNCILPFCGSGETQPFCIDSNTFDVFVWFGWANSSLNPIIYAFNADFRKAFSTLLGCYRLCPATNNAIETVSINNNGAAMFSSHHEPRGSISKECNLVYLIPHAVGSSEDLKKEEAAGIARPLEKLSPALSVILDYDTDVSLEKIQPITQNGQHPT
# dopamine D1 receptors, sequence (P21728 whole entry): as above
# T1 sequence (P18901 whole entry): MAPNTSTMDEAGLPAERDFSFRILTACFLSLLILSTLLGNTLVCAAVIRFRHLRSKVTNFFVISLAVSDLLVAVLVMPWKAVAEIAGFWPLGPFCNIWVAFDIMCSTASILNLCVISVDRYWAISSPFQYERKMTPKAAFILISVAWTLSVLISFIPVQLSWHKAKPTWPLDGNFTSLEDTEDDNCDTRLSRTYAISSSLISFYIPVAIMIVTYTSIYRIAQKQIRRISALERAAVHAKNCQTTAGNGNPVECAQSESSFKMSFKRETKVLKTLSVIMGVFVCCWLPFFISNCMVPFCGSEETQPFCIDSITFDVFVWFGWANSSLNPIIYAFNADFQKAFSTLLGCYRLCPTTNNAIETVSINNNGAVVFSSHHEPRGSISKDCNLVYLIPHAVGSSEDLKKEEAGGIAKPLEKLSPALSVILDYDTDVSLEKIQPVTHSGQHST
compound,measurement,setting,value
"CN1CCc2cc(Cl)c(O)cc2C2c3ccccc3CCC21 (stereo not drawn) [Q=CH2, n=1, trans, X=Cl, Y=OH, 6,7,7a,8,9,13b-hexahydro-3-chloro-2-hydroxy-7-methyl-5H-benzo[d]naphtho[2,1-b]azepine]",CAR (MED),[1]; po,30
same,CAR (MED),[1]; sc,0.3
"COc1cc2c(cc1O)C1c3ccccc3CCC1N(C)CC2 (stereo not drawn) [Q=CH2, n=1, trans, X=CH3O, Y=OH, 6,7,7a,8,9,13b-hexahydro-2-hydroxy-3-methoxy-7-methyl-5H-benzo[d]naphtho[2,1-b]azepine]",CAR (MED),[1]; po,30
same,CAR (MED),[1]; sc,0.3-1
"COc1cc2c(cc1O)C1c3ccccc3CCCC1N(C)CC2 (stereo not drawn) [Q=CH2, n=2, trans, X=CH3O, Y=OH, 2-hydroxy-3-methoxy-7-methyl-5,6,7,7a,8,9,10,14b-octahydro-benzo[d]benzo[3,4]cyclo-hepta[1,2-b]azepine]",CAR (MED),[1]; sc,10 (sc)
Cc1nc2n(c(=O)c1CCN1CCC(c3noc4cc(F)ccc34)CC1)CCCC2 [risperidone],reported effect on stuttering,stuttering; [3],induce stuttering
"CN1CCc2cc(Cl)c(O)cc2[C@H]2c3ccccc3CC[C@@H]21 [ecopipam, (−)-trans-6,7,7a,8,9,13b-hexahydro-3-chloro-2-hydroxy-N-methyl-5H-benzo [d]-naphtho-[2,1-b]azepine]",affinity for hD1/hD5 receptors,hD1/hD5 receptors,high affinity
same,binding in human brain (PET),dopamine D1 receptors,specific binding in the human brain
same,patients reporting AEs rated as severe,[2]; 18 subjects,Four
same,subjects reporting at least one adverse event,[2]; 18 subjects,All subjects
same,AEs rated as severe (kinds),[2],"sedation, insomnia, decreased appetite, hypersensitivity, cold sweat, and feeling jittery"
same,AEs rated mild to moderate reported in more than three subjects,[2],"fatigue, insomnia, nausea, sedation, headache, restlessness, anxiety, muscle twitching, dysphoria, and sleeplessness"
same,changes in lab tests,[2],none were of clinical significance
same,changes in vital signs,[2],no clinically significant changes in vital signs
same,serious adverse events,[2],no serious adverse events
same,action on dopamine-agonist-induced behaviors,D1 receptor,selective D1 antagonist
same,action on cAMP second messenger,D1 receptors,antagonist
same,affinity for D1/D5 receptors,D1/D5 receptors,high affinity
"CN1CCc2cc(Cl)c(O)cc2[C@H]2c3ccccc3CC[C@@H]21 [Q=CH2, n=1, 7b(R): 7a(S)(−), X=Cl, Y=OH, 6,7,7a,8,9,13b-hexahydro-3-chloro-2-hydroxy-7-methyl-5H-benzo[d]naphtho[2,1-b]azepine]",CAR (MED),[1]; po,30 (po)
COC(=O)C(c1ccccc1)C1CCCCN1 (stereo not shown) [methylphenidate],reported effect on stuttering,"stuttering; D2-preferring dopamine agonist, literature report",relieve stuttering
Cc1cc2c(s1)Nc1ccccc1N=C2N1CCN(C)CC1 [olanzapine],reported effect on stuttering,stuttering; [3],induce stuttering
"CN1CCc2cc(Cl)c(N)cc2C2c3ccccc3CCC21 (stereo not drawn) [Q=CH2, n=1, trans, X=Cl, Y=NH2, 6,7,7a,8,9,13b-hexahydro-2-amino-3-chloro-7-methyl-5H-benzo[d]naphtho[2,1-b]azepine]",CAR (MED),[1]; po,3 (po)
"CN1CCc2cc(Cl)c(O)cc2[C@@H]2c3ccccc3CC[C@H]21 [Q=CH2, n=1, 7b(S):7a(R)(+), X=Cl, Y=OH, 6,7,7a,8,9,13b-hexahydro-3-chloro-2-hydroxy-7-methyl-5H-benzo[d]naphtho[2,1-b]azepine]",CAR (MED),[1]; po,>30 (po)
CN1CC2c3ccccc3Oc3ccc(Cl)cc3C2C1 (stereo not shown) [asenapine],reported effect on stuttering,stuttering; [3],induce stuttering
"COc1cc2c(cc1O)CCN(C)C1CCCc3ccccc3C21 (stereo not drawn) [Q=CH2, n=2, trans, X=HO, Y=CH3O, 3-hydroxy-2-methoxy-7-methyl-5,6,7,7a,8,9,10,14b-octahydro-benzo[d]benzo[3,4]cyclo-hepta[1,2-b]azepine]",CAR (MED),[1]; sc,10 (sc)
